Experiments:
acute pain, bunionectomy = assay: Efficacy (SPID48) of 3 to 2 product vs morphine vs oxycodone, bunionectomy study (Example 2); format: in vivo, human; settings: for Mean SPID48 Score: 48 hr; for pain control by SPID48 (judged analgesic dose): low doses alone: morphine 6 mg, oxycodone 4 mg
analgesia = settings: mouse, in vivo; cited from earlier work

| Structure (SMILES) | Mean SPID48 Score (acute pain, bunionectomy; 4 mg q6h) | Mean SPID48 Score (acute pain, bunionectomy; 8 mg q6h) | pain control by SPID48 (judged analgesic dose) (acute pain, bunionectomy) | interaction with morphine, morphine-6-β-glucuronide, codeine, and 6-acetylmorphine (analgesia) | Mean SPID48 Score (acute pain, bunionectomy; 6 mg q6h) | Mean SPID48 Score (acute pain, bunionectomy; 12 mg q6h) |
| --- | --- | --- | --- | --- | --- | --- |
| COc1ccc2c3c1O[C@H]1C(=O)CC[C@@]4(O)[C@@H](C2)N(C)CC[C@]314 [Oxycodone, oxycodone] | 60 | 99 | gave pain control | – | – | – |
| CCC(=O)C(C[C@@H](C)N(C)C)(c1ccccc1)c1ccccc1 [L-methadone] | – | – | – | exhibited synergy | – | – |
| CN1CC[C@]23c4c5ccc(O)c4O[C@H]2[C@@H](O)C=C[C@H]3[C@H]1C5 [Morphine, morphine] | – | – | gave pain control | – | 51 | 106 |

— patent US20110046173A1 (priority 2009, published 2011)
